Measured values taken from patent US6737383B1, “Herbicidal oxadiazolidines” (priority 1999, dated 2004).

Experiments:
[1] = test system: purple nutsedge; experiment: Test B pre/postemergence purple nutsedge; type: in vivo, Cyperus rotundus
Summary of the method: (§1)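 Test chemicals in a non-phytotoxic solvent mixture with surfactant were sprayed preemergence onto planted seeds and postemergence onto plants 2 to 18 cm tall (1- to 4-leaf stage). After twelve to sixteen days in a greenhouse, injury was visually rated against untreated controls from 0 (no effect) to 10 (complete control).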

[2] = test system: wild oat; experiment: Test B pre/postemergence wild oat; type: in vivo, Avena fatua
Summary of the method: as §1

[3] = test system: giant foxtail; experiment: Test B pre/postemergence giant foxtail; type: in vivo, Setaria faberii
Summary of the method: as §1

[4] = test system: sugar beet; experiment: Test B pre/postemergence sugar beet; type: in vivo, Beta vulgaris
Summary of the method: as §1

[5] = test system: bamyardgrass; experiment: Test B flood test barnyardgrass; type: in vivo, Echinochloa crus-galli
Summary of the method: (§2)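 Read-out is a visual response score from 0 (no effect) to 10 (complete control), assigned by comparison with untreated controls. Treatment was applied at the 2-leaf stage, and plants stayed in the greenhouse for twelve to sixteen days before scoring.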

[6] = test system: blackgrass; experiment: Test B pre/postemergence blackgrass; type: in vivo, Alopecurus myosuroides
Summary of the method: as §1

[7] = test system: corn; experiment: Test B pre/postemergence corn; type: in vivo, Zea mays
Summary of the method: as §1

[8] = test system: cocklebur; experiment: Test B pre/postemergence cocklebur; type: in vivo, Xanthium strumarium
Summary of the method: as §1

[9] = test system: morningglory; experiment: Test B pre/postemergence morningglory; type: in vivo, Ipomoea hederacea
Summary of the method: as §1

[10] = test system: rape; experiment: Test B pre/postemergence rape; type: in vivo, Brassica napus
Summary of the method: as §1

[11] = test system: bedstraw; experiment: Test B pre/postemergence bedstraw; type: in vivo, Galium aparine; conditions: Preemergence, Rate 62 g/ha; scale 0 to 10 (0 no effect, 10 complete control)
Summary of the method: as §1

[12] = test system: rice; experiment: Test B flood test rice; type: in vivo, Oryza sativa
Summary of the method: as §2

[13] = test system: duck salad; experiment: Test B flood test duck salad; type: in vivo, Heteranthera limosa
Summary of the method: as §2

[14] = test system: surinam grass; experiment: Test B pre/postemergence surinam grass; type: in vivo, Brachiaria decumbens
Summary of the method: as §1

[15] = test system: velvetleaf; experiment: Test B pre/postemergence velvetleaf; type: in vivo, Abutilon theophrasti
Summary of the method: as §1

[16] = test system: crabgrass; experiment: Test B pre/postemergence crabgrass; type: in vivo, Digitaria sanguinalis
Summary of the method: as §1

[17] = test system: smallflower flatsedge; experiment: Test B flood test smallflower flatsedge; type: in vivo, Cyperus difformis
Summary of the method: as §2

[18] = test system: soybean; experiment: Test B pre/postemergence soybean; type: in vivo, Glycine max
Summary of the method: as §1

[19] = test system: pigweed; experiment: Test B pre/postemergence pigweed; type: in vivo, Amaranthus retroflexus
Summary of the method: as §1

[20] = test system: wheat; experiment: Test B pre/postemergence wheat; type: in vivo, Triticum aestivum
Summary of the method: as §1

[21] = Postemergence, Rate 250 g/ha, scale 0 to 10
[22] = Postemergence, Rate 500 g/ha, scale of 0 to 10 where 0 is no effect and 10 is complete control
[23] = Preemergence, Rate 62 g/ha, scale 0 to 10 (0 no effect, 10 complete control)
[24] = Preemergence, Rate 125 g/ha, scale of 0 to 10 where 0 is no effect and 10 is complete control
[25] = Preemergence, Rate 250 g/ha, scale 0 to 10, 0 is no effect, 10 is complete control
[26] = Preemergence, Rate 500 g/ha, scale 0 to 10, 0 is no effect, 10 is complete control
[27] = Rate 125 g/ha, Postemergence, scale 0 to 10, 0 is no effect, 10 is complete control
[28] = Rate 62 g/ha, Postemergence, scale of 0 to 10 where 0 is no effect and 10 is complete control
[29] = Postemergence block (flood test species), Rate 250 g/ha, scale 0 to 10
[30] = Postemergence section (flood test species), Rate 500 g/ha, scale of 0 to 10 where 0 is no effect and 10 is complete control
[31] = Rate 62 g/ha, Postemergence (flood test species), scale of 0 to 10 where 0 is no effect and 10 is complete control
[32] = Rate 125 g/ha, Postemergence section (flood test species), scale 0 to 10, 0 is no effect, 10 is complete control

In the case of `CC(C)N(C(=O)n1oc(=O)n(CC#N)c1=O)c1ccc(F)cc1F` [Compound 431], the “Nutsedge plant response rating” value [1, 21] is reported as 0, the “Nutsedge plant response rating” value [1, 22] is reported as 0 and the “Plant response rating, Nutsedge” value [1, 23] is reported as 0. For the same compound, the “Plant response rating, Nutsedge” value [1, 24] was 0, the “Nutsedge plant response rating” value [1, 25] was 0 and the “Nutsedge plant response rating” value [1, 26] was 0. The “Nutsedge plant response rating” value [1, 27] was 0, the “Wild oats plant response rating” value [2, 21] was 0 and the “Wild oats plant response rating” value [2, 22] was 0. For the same compound, the “Plant response rating, Wild oats” value [2, 23] was 0, the “Plant response rating, Wild oats” value [2, 24] was 0 and the “Wild oats plant response rating” value [2, 25] was 2. For the same compound, the “Wild oats plant response rating” value [2, 26] was 2, the “Wild oats plant response rating” value [2, 27] was 0 and the “Giant foxtail plant response rating” value [3, 21] was 0. The “Giant foxtail plant response rating” value [3, 22] was 6, the “Plant response rating, Giant foxtail” value [3, 23] was 0 and the “Plant response rating, Giant foxtail” value [3, 24] was 0. The “Giant foxtail plant response rating” value [3, 25] was 2, the “Giant foxtail plant response rating” value [3, 26] was 3 and the “Giant foxtail plant response rating” value [3, 28] was 0. The “Giant foxtail plant response rating” value [3, 27] was 0, the “Sugarbeets plant response rating” value [4, 21] was 0 and the “Sugarbeets plant response rating” value [4, 22] was 0. For the same compound, the “Plant response rating, Sugarbeets” value [4, 23] was 0, the “Plant response rating, Sugarbeets” value [4, 24] was 0 and the “Sugarbeets plant response rating” value [4, 25] was 0. For the same compound, the “Sugarbeets plant response rating” value [4, 26] was 0, the “Sugarbeets plant response rating” value [4, 27] was 0 and the “Barnyardgrass plant response rating” value [5, 29] was 0. For the same compound, the “Barnyardgrass plant response rating” value [5, 30] was 0, the “Barnyardgrass plant response rating” value [5, 31] was 0 and the “Barnyardgrass plant response rating” value [5, 32] was 0. The “Blackgrass plant response rating” value [6, 21] was 2, the “Blackgrass plant response rating” value [6, 22] was 5 and the “Plant response rating, Blackgrass” value [6, 23] was 0. The “Plant response rating, Blackgrass” value [6, 24] was 0, the “Blackgrass plant response rating” value [6, 25] was 0 and the “Blackgrass plant response rating” value [6, 26] was 3. For the same compound, the “Blackgrass plant response rating” value [6, 28] was 0, the “Blackgrass plant response rating” value [6, 27] was 0 and the “Corn plant response rating” value [7, 21] was 0. For the same compound, the “Corn plant response rating” value [7, 22] was 0, the “Plant response rating, Corn” value [7, 23] was 0 and the “Plant response rating, Corn” value [7, 24] was 0. For the same compound, the “Corn plant response rating” value [7, 25] was 0, the “Corn plant response rating” value [7, 26] was 0 and the “Corn plant response rating” value [7, 28] was 0. The “Corn plant response rating” value [7, 27] was 0, the “Cocklebur plant response rating” value [8, 21] was 0 and the “Cocklebur plant response rating” value [8, 22] was 0. The “Plant response rating, Cocklebur” value [8, 23] was 0, the “Plant response rating, Cocklebur” value [8, 24] was 0 and the “Cocklebur plant response rating” value [8, 25] was 0. For the same compound, the “Cocklebur plant response rating” value [8, 28] was 0, the “Cocklebur plant response rating” value [8, 27] was 0 and the “Morningglory plant response rating” value [9, 21] was 1. The “Morningglory plant response rating” value [9, 22] was 2, the “Plant response rating, Morningglory” value [9, 23] was 0 and the “Plant response rating, Morningglory” value [9, 24] was 0. The “Morningglory plant response rating” value [9, 25] was 0, the “Morningglory plant response rating” value [9, 26] was 0 and the “Morningglory plant response rating” value [9, 27] was 1. The “Rape plant response rating” value [10, 21] was 0, the “Rape plant response rating” value [10, 22] was 0 and the “Plant response rating, Rape” value [10, 23] was 0. For the same compound, the “Plant response rating, Rape” value [10, 24] was 0, the “Rape plant response rating” value [10, 25] was 0 and the “Rape plant response rating” value [10, 26] was 3. The “Rape plant response rating” value [10, 27] was 0, the “Plant response rating, Bedstraw” value [11] was 0 and the “Rice plant response rating” value [12, 29] was 0. The “Rice plant response rating” value [12, 30] was 0, the “Rice plant response rating” value [12, 32] was 0 and the “Ducksalad plant response rating” value [13, 29] was 0. For the same compound, the “Ducksalad plant response rating” value [13, 30] was 0, the “Ducksalad plant response rating” value [13, 31] was 0 and the “Ducksalad plant response rating” value [13, 32] was 0. For the same compound, the “B. signalgrass plant response rating” value ([14]; Postemergence, Rate 250 g/ha, scale 0 to 10, 0 no effect, 10 complete control) was 0, the “B. signalgrass plant response rating” value [14, 22] was 2 and the “Plant response rating, B. signalgrass” value [14, 23] was 0. The “Plant response rating, B. signalgrass” value [14, 24] was 0, the “B. signalgrass plant response rating” value [14, 25] was 0 and the “B. signalgrass plant response rating” value [14, 26] was 0. For the same compound, the “B. signalgrass plant response rating” value [14, 28] was 0, the “B. signalgrass plant response rating” value [14, 27] was 0 and the “Velvetleaf plant response rating” value [15, 21] was 0. The “Velvetleaf plant response rating” value [15, 22] was 2, the “Plant response rating, Velvetleaf” value [15, 23] was 0 and the “Plant response rating, Velvetleaf” value [15, 24] was 0. The “Velvetleaf plant response rating” value [15, 25] was 0, the “Velvetleaf plant response rating” value [15, 26] was 0 and the “Velvetleaf plant response rating” value [15, 27] was 0. The “Crabgrass plant response rating” value [16, 21] was 0, the “Crabgrass plant response rating” value [16, 22] was 2 and the “Plant response rating, Crabgrass” value [16, 23] was 0. The “Crabgrass plant response rating” value [16, 26] was 3, the “Crabgrass plant response rating” value [16, 28] was 0 and the “Crabgrass plant response rating” value [16, 27] was 0. For the same compound, the “S. Flatsedge plant response rating” value [17, 29] was 0, the “S. Flatsedge plant response rating” value [17, 30] was 0 and the “S. Flatsedge plant response rating” value [17, 32] was 0. The “Soybean plant response rating” value [18, 21] was 1, the “Soybean plant response rating” value [18, 22] was 2 and the “Plant response rating, Soybean” value [18, 23] was 0. For the same compound, the “Plant response rating, Soybean” value [18, 24] was 0, the “Soybean plant response rating” value [18, 25] was 0 and the “Soybean plant response rating” value [18, 26] was 0. The “Soybean plant response rating” value [18, 27] was 1, the “Redroot pigweed plant response rating” value [19, 21] was 0 and the “Redroot pigweed plant response rating” value [19, 22] was 0. For the same compound, the “Plant response rating, Redroot pigweed” value [19, 23] was 0, the “Plant response rating, Redroot pigweed” value [19, 24] was 0 and the “Redroot pigweed plant response rating” value [19, 25] was 0. For the same compound, the “Redroot pigweed plant response rating” value [19, 26] was 0, the “Redroot pigweed plant response rating” value [19, 27] was 0 and the “Wheat plant response rating” value [20, 21] was 0. The “Wheat plant response rating” value [20, 22] was 0, the “Plant response rating, Wheat” value [20, 23] was 0 and the “Plant response rating, Wheat” value [20, 24] was 0. For the same compound, the “Wheat plant response rating” value [20, 25] was 0, the “Wheat plant response rating” value [20, 26] was 0 and the “Wheat plant response rating” value [20, 27] was 0.
